In patent US20100041089A1, “IMPROVED METHOD FOR DETECTING CHEMICAL […]” (priority 2006, published 2010):

Tested on: yeast genes (expressed mRNA)
Test: DNA chip measurement of expressed mRNA of yeast genes after culture with a toxic chemical substance
Assay type: cell-based, Saccharomyces cerevisiae S288C
Method: Yeast (Saccharomyces cerevisiae S288C (a SUC2mal mel gap2 CUP1)) were cultured at 25° C. on YPD medium (yeast extract 1%, polypeptone 2%, glucose 2%). One of toxic chemical substances was added to the cell at logarithmic growth phase, and the cell was further cultured for two hours. Cell was cultured without any chemical substance in the same condition, and was used as a control. Concentrations of the chemical substances were defined to inhibit the growth of the yeast but not lead to death.
After the completion of cultivation, the culture was centrifuged to collect the cells. To the cells, sodium acetate buffer (50 mM sodium acetate, 10 mM EDTA, 1% SDS) was added, and the mixture was shaken at 65° C. for five minutes, followed by returning to room temperature, and obtaining the supernatant, which procedure was repeated two times. To the supernatant, ½ amount of a solution of phenol/chloroform (1:1) was added, and the mixture was centrifuged to give a supernatant, an equal amount of chloroform was added, and the mixture was centrifuged to give a supernatant. To the supernatant, an equal amount of isopropanol containing 0.3 M sodium acetate was added, and the mixture was allowed to stand at room temperature for 30 minutes, after which the mixture was centrifuged to give sediment of the whole RNAs. Seventy % ethanol was added to the sediment, and the mixture was again centrifuged to give sediment, which was then dried and dissolved in water. mRNA was isolated from the whole RNAs as followings. In view of the fact that a poly A chain is attached to the 3′ terminus of mRNA, a polynucleotide having a poly T structure which was immobilized on the surface of latex beads was used to trap the mRNA, and then the mRNA was washed and eluted with spine column (Oligotex-dT30<Super>mRNA Purification Kit, Takara). Reverse transcription of the mRNA was conducted with a reverse transcriptase (Super Script II Reverse Transcriptase; catalogue No. 18064-014, GibcoBRL) using fluorescence-labeled nucleotides to give cDNAs that were introduced with Cy3-dUTP or Cy5-dUTP during the reverse transcription.
The labeled cDNAs were dissolved in TE buffer (10 mM Tris-HCl/1 mM EDTA, pH 8.0), and the solution was dropped on the DNA chip containing the whole genes of yeast (DNA Chip Research Inc. Japan) so that the cDNAs were hybridized on the DNA chip at 65° C. for over 12 hours. The fluoresces intensity of the DNA chip was read with a scanner, and the ratio relative to the fluorescence intensity resulting from the absence of chemical substance was estimated as the following, which is shown in Tables 1 to 9.
In the Tables, “Intensity” indicated in the rightmost column is a value of the level of expressed mRNA of each gene in control cells as divided by the average level of the expressions of the whole genes. A gene of which mRNA level is lower in control, and is higher in cases of addition of chemical substance, is especially useful in the detection of toxic substances.
Here, when a ratio of an amount of mRNA expressed in the presence of the chemical substance to an amount of mRNA expressed in the absence of the chemical substance is two or more, then it is considered significant.

Compound: O=[N+]([O-])c1cc[n+]([O-])c2ccccc12 [(5), 4-Nitroquinoline-N-oxide]
- The level of expressed mRNA in the presence of chemical substance/The level of expressed mRNA in the absence of chemical substance (yeast gene YAL053W, cultured two hours with substance): 0.8
- The level of expressed mRNA in the presence of chemical substance/The level of expressed mRNA in the absence of chemical substance (yeast gene YBL048W, cultured two hours with substance): 1.3
- The level of expressed mRNA in the presence of chemical substance/The level of expressed mRNA in the absence of chemical substance (yeast gene YBL107C, cultured two hours with substance): 1.2
- The level of expressed mRNA in the presence of chemical substance/The level of expressed mRNA in the absence of chemical substance (yeast gene YDL072C, cultured two hours with substance): 1.4
- The level of expressed mRNA in the presence of chemical substance/The level of expressed mRNA in the absence of chemical substance (yeast gene YDL204W, cultured two hours with substance): 1.0
- The level of expressed mRNA in the presence of chemical substance/The level of expressed mRNA in the absence of chemical substance (yeast gene YDL222C, cultured two hours with substance): 1.0
- The level of expressed mRNA in the presence of chemical substance/The level of expressed mRNA in the absence of chemical substance (yeast gene YDR003W, cultured two hours with substance): 1.8
- The level of expressed mRNA in the presence of chemical substance/The level of expressed mRNA in the absence of chemical substance (yeast gene YDR330W, cultured two hours with substance): 1.2
- The level of expressed mRNA in the presence of chemical substance/The level of expressed mRNA in the absence of chemical substance (yeast gene YDR357C, cultured two hours with substance): 2.0
- The level of expressed mRNA in the presence of chemical substance/The level of expressed mRNA in the absence of chemical substance (yeast gene YDR391C, cultured two hours with substance): 1.2
- The level of expressed mRNA in the presence of chemical substance/The level of expressed mRNA in the absence of chemical substance (yeast gene YDR411C, cultured two hours with substance): 1.6
- The level of expressed mRNA in the presence of chemical substance/The level of expressed mRNA in the absence of chemical substance (yeast gene YDR511W, cultured two hours with substance): 1.0
- The level of expressed mRNA in the presence of chemical substance/The level of expressed mRNA in the absence of chemical substance (yeast gene YDR531W, cultured two hours with substance): 2.0
- The level of expressed mRNA in the presence of chemical substance/The level of expressed mRNA in the absence of chemical substance (yeast gene YDR539W, cultured two hours with substance): 1.8
- The level of expressed mRNA in the presence of chemical substance/The level of expressed mRNA in the absence of chemical substance (yeast gene YDR545W, cultured two hours with substance): 1.4
- The level of expressed mRNA in the presence of chemical substance/The level of expressed mRNA in the absence of chemical substance (yeast gene YEL001C, cultured two hours with substance): 0.9
- The level of expressed mRNA in the presence of chemical substance/The level of expressed mRNA in the absence of chemical substance (yeast gene YER004W, cultured two hours with substance): 1.5
- The level of expressed mRNA in the presence of chemical substance/The level of expressed mRNA in the absence of chemical substance (yeast gene YER035W, cultured two hours with substance): 1.5
- The level of expressed mRNA in the presence of chemical substance/The level of expressed mRNA in the absence of chemical substance (yeast gene YER044C, cultured two hours with substance): 1.8
- The level of expressed mRNA in the presence of chemical substance/The level of expressed mRNA in the absence of chemical substance (yeast gene YER079W, cultured two hours with substance): 0.8
- The level of expressed mRNA in the presence of chemical substance/The level of expressed mRNA in the absence of chemical substance (yeast gene YER106W, cultured two hours with substance): 1.6
- The level of expressed mRNA in the presence of chemical substance/The level of expressed mRNA in the absence of chemical substance (yeast gene YER158C, cultured two hours with substance): 0.8
- The level of expressed mRNA in the presence of chemical substance/The level of expressed mRNA in the absence of chemical substance (yeast gene YER163C, cultured two hours with substance): 0.8
- The level of expressed mRNA in the presence of chemical substance/The level of expressed mRNA in the absence of chemical substance (yeast gene YER175C, cultured two hours with substance): 0.9
- The level of expressed mRNA in the presence of chemical substance/The level of expressed mRNA in the absence of chemical substance (yeast gene YFL006W, cultured two hours with substance): 1.4
- The level of expressed mRNA in the presence of chemical substance/The level of expressed mRNA in the absence of chemical substance (yeast gene YFL010C, cultured two hours with substance): 1.3
- The level of expressed mRNA in the presence of chemical substance/The level of expressed mRNA in the absence of chemical substance (yeast gene YFL024C, cultured two hours with substance): 1.1
- The level of expressed mRNA in the presence of chemical substance/The level of expressed mRNA in the absence of chemical substance (yeast gene YFL032W, cultured two hours with substance): 0.9
- The level of expressed mRNA in the presence of chemical substance/The level of expressed mRNA in the absence of chemical substance (yeast gene YGL037C, cultured two hours with substance): 0.9
- The level of expressed mRNA in the presence of chemical substance/The level of expressed mRNA in the absence of chemical substance (yeast gene YGL047W, cultured two hours with substance): 1.3
- The level of expressed mRNA in the presence of chemical substance/The level of expressed mRNA in the absence of chemical substance (yeast gene YGL053W, cultured two hours with substance): 2.0
- The level of expressed mRNA in the presence of chemical substance/The level of expressed mRNA in the absence of chemical substance (yeast gene YGL121C, cultured two hours with substance): 0.9
- The level of expressed mRNA in the presence of chemical substance/The level of expressed mRNA in the absence of chemical substance (yeast gene YGL199C, cultured two hours with substance): 0.7
- The level of expressed mRNA in the presence of chemical substance/The level of expressed mRNA in the absence of chemical substance (yeast gene YGR101W, cultured two hours with substance): 1.2
- The level of expressed mRNA in the presence of chemical substance/The level of expressed mRNA in the absence of chemical substance (yeast gene YGR110W, cultured two hours with substance): 0.9
- The level of expressed mRNA in the presence of chemical substance/The level of expressed mRNA in the absence of chemical substance (yeast gene YGR130C, cultured two hours with substance): 1.4
- The level of expressed mRNA in the presence of chemical substance/The level of expressed mRNA in the absence of chemical substance (yeast gene YGR154C, cultured two hours with substance): 1.2
- The level of expressed mRNA in the presence of chemical substance/The level of expressed mRNA in the absence of chemical substance (yeast gene YGR221C, cultured two hours with substance): 0.9
- The level of expressed mRNA in the presence of chemical substance/The level of expressed mRNA in the absence of chemical substance (yeast gene YHR053C (detoxification protein gene)): 2.9
- The level of expressed mRNA in the presence of chemical substance/The level of expressed mRNA in the absence of chemical substance (yeast gene YHR055C (detoxification protein gene)): 2.7
- The level of expressed mRNA in the presence of chemical substance/The level of expressed mRNA in the absence of chemical substance (yeast gene YHR136C): 2.4
- The level of expressed mRNA in the presence of chemical substance/The level of expressed mRNA in the absence of chemical substance (yeast gene YHR138C, cultured two hours with substance): 1.5
- The level of expressed mRNA in the presence of chemical substance/The level of expressed mRNA in the absence of chemical substance (yeast gene YHR199C, cultured two hours with substance): 1.2
- The level of expressed mRNA in the presence of chemical substance/The level of expressed mRNA in the absence of chemical substance (yeast gene YHR209W, cultured two hours with substance): 1.8
- The level of expressed mRNA in the presence of chemical substance/The level of expressed mRNA in the absence of chemical substance (yeast gene YIL023C, cultured two hours with substance): 1.3
- The level of expressed mRNA in the presence of chemical substance/The level of expressed mRNA in the absence of chemical substance (yeast gene YIL041W, cultured two hours with substance): 0.5
- The level of expressed mRNA in the presence of chemical substance/The level of expressed mRNA in the absence of chemical substance (yeast gene YIL087C, cultured two hours with substance): 1.4
- The level of expressed mRNA in the presence of chemical substance/The level of expressed mRNA in the absence of chemical substance (yeast gene YJL057C, cultured two hours with substance): 1.5
- The level of expressed mRNA in the presence of chemical substance/The level of expressed mRNA in the absence of chemical substance (yeast gene YJL066C, cultured two hours with substance): 0.8
- The level of expressed mRNA in the presence of chemical substance/The level of expressed mRNA in the absence of chemical substance (yeast gene YJL082W, cultured two hours with substance): 1.7
- The level of expressed mRNA in the presence of chemical substance/The level of expressed mRNA in the absence of chemical substance (yeast gene YJL151C, cultured two hours with substance): 1.3
- The level of expressed mRNA in the presence of chemical substance/The level of expressed mRNA in the absence of chemical substance (yeast gene YJL152W, cultured two hours with substance): 1.6
- The level of expressed mRNA in the presence of chemical substance/The level of expressed mRNA in the absence of chemical substance (yeast gene YJL161W, cultured two hours with substance): 1.1
- The level of expressed mRNA in the presence of chemical substance/The level of expressed mRNA in the absence of chemical substance (yeast gene YJL171C, cultured two hours with substance): 1.0
- The level of expressed mRNA in the presence of chemical substance/The level of expressed mRNA in the absence of chemical substance (yeast gene YJR008W, cultured two hours with substance): 1.4
- The level of expressed mRNA in the presence of chemical substance/The level of expressed mRNA in the absence of chemical substance (yeast gene YJR054W, cultured two hours with substance): 1.0
- The level of expressed mRNA in the presence of chemical substance/The level of expressed mRNA in the absence of chemical substance (yeast gene YKL071W, cultured two hours with substance): 1.1
